According to PMC7265341, “Quantifying CDK inhibitor selectivity in live cells” (Nature Communications, 2020):
Like-named read-outs stand apart in the source and are kept apart here.

Tests used:
[1] = target: CDK15/Cyclin Y (Homo sapiens, UniProt Q96Q40); assay: NanoBRET live-cell target engagement, NanoLuc-CDK15/Cyclin Y in HEK-293; assay type: binding; conditions: read-out: Inhibition at 10µM (%), CDK15/Y
[2] = target: CDK1/Cyclin E1 (Homo sapiens, UniProt P06493); assay: NanoBRET live-cell target engagement, CDK1-NanoLuc/Cyclin E1 in HEK-293; assay type: binding; conditions: CDK1/E1, read-out: Inhibition at 10µM (%)
Sequence of CDK1/Cyclin E1 (P06493 whole entry): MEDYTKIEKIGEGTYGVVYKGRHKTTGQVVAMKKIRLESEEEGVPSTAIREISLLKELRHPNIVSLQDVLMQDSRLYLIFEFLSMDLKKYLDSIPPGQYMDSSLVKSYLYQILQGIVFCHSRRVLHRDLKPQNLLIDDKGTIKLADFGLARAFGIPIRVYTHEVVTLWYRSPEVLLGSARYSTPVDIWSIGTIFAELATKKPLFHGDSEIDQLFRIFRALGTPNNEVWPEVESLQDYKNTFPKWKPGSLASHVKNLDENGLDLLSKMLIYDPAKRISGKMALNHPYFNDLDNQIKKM
Sequence of CDK1/Cyclin E1 (P24864 whole entry partner): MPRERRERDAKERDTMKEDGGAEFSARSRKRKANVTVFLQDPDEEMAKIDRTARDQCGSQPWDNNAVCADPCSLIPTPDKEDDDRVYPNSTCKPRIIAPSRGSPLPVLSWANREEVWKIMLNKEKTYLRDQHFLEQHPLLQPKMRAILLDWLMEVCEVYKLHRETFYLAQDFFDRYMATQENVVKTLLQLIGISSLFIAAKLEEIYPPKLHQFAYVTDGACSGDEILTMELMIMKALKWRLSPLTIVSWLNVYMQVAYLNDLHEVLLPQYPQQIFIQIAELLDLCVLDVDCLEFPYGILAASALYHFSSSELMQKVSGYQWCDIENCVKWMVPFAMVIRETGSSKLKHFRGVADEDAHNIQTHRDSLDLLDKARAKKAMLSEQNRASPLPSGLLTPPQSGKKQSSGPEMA

[3] = target: CDK13/Cyclin K (Homo sapiens, UniProt Q14004); assay: NanoBRET live-cell target engagement, CDK13-NanoLuc/Cyclin K in HEK-293; assay type: binding; conditions: CDK13/K, read-out: Inhibition at 10µM (%)
[4] = target: CDK18/Cyclin Y (Homo sapiens, UniProt Q07002); assay: NanoBRET live-cell target engagement, CDK18-NanoLuc/Cyclin Y in HEK-293; assay type: binding; conditions: read-out: Inhibition at 10µM (%), CDK18/Y
Sequence of CDK18/Cyclin Y (Q07002 whole entry): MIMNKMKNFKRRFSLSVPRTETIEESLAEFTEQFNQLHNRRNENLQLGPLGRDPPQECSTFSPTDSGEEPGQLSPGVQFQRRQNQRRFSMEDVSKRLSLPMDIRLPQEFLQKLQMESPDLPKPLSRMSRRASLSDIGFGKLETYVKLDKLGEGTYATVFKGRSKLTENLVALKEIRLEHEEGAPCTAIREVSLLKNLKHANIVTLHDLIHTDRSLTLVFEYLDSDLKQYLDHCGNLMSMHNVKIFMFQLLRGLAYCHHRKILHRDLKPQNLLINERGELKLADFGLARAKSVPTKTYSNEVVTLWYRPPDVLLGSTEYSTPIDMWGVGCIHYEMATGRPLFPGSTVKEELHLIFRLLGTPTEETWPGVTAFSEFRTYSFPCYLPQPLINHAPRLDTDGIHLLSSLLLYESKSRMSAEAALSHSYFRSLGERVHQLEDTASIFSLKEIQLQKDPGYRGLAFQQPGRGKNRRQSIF
Sequence of CDK18/Cyclin Y (Q8ND76 whole entry partner): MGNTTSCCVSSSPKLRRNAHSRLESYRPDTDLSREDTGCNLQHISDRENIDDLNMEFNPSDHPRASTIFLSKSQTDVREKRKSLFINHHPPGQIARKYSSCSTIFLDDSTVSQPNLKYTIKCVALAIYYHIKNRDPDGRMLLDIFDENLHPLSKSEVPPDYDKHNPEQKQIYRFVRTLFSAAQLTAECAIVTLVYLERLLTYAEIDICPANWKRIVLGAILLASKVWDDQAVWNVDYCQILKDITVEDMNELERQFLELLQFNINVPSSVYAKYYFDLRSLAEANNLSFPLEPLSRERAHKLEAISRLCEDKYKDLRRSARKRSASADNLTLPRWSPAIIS

[5] = target: CDK12/Cyclin K (Homo sapiens, UniProt Q9NYV4); assay: NanoBRET live-cell target engagement, CDK12-NanoLuc/Cyclin K in HEK-293; assay type: binding; conditions: read-out: Inhibition at 10µM (%), CDK12/K
[6] = target: CDK2/Cyclin E1 (Homo sapiens, UniProt P24941); assay: NanoBRET live-cell target engagement, CDK2-NanoLuc/Cyclin E1 in HEK-293; assay type: binding; conditions: for inhibition at 10 µM: CDK2/E1, read-out: Inhibition at 10µM (%)
[7] = target: CDK9/Cyclin K (Homo sapiens, UniProt P50750); assay: NanoBRET live-cell target engagement, NanoLuc-CDK9/Cyclin K in HEK-293; assay type: binding; conditions: CDK9/K, read-out: Inhibition at 10µM (%)
[8] = target: CDK20/Cyclin H (Homo sapiens, UniProt Q8IZL9); assay: NanoBRET live-cell target engagement, NanoLuc-CDK20/Cyclin H in HEK-293; assay type: binding; conditions: read-out: Inhibition at 10µM (%), CDK20/H
[9] = target: CDK17/Cyclin Y (Homo sapiens, UniProt Q00537); assay: NanoBRET live-cell target engagement, CDK17-NanoLuc/Cyclin Y in HEK-293; assay type: binding; conditions: read-out: Inhibition at 10µM (%), CDK17/Y
Sequence of CDK17/Cyclin Y (Q00537 whole entry): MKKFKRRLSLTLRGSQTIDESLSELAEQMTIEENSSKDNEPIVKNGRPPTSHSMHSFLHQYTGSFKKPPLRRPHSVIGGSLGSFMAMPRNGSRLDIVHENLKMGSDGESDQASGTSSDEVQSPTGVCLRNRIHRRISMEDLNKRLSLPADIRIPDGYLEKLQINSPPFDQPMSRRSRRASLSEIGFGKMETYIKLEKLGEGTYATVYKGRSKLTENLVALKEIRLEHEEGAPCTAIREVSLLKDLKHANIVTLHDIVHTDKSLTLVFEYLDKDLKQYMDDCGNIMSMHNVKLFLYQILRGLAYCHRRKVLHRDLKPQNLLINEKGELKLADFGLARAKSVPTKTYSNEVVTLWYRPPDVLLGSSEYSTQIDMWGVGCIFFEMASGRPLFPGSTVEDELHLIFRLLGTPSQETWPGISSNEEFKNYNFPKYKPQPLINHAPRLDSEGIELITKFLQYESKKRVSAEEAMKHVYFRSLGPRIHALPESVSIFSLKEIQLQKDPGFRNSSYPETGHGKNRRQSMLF
Sequence of CDK17/Cyclin Y (Q8ND76 whole entry partner): as the sequence (Q8ND76 whole entry partner) above

[10] = target: CDK5/CDK5R1 (Homo sapiens, UniProt Q00535); assay: NanoBRET live-cell target engagement, CDK5-NanoLuc/CDK5R1 in HEK-293; assay type: binding; conditions: CDK5/CDK5R1, read-out: Inhibition at 10µM (%)
[11] = target: CDK4/Cyclin D1 (Homo sapiens, UniProt P11802); assay: NanoBRET live-cell target engagement, NanoLuc-CDK4/Cyclin D1 in HEK-293; assay type: binding; conditions: CDK4/D1, read-out: Inhibition at 10µM (%)
[12] = target: CDK8/Cyclin C (Homo sapiens, UniProt P49336); assay: NanoBRET live-cell target engagement, NanoLuc-CDK8/Cyclin C in HEK-293; assay type: binding; conditions: for IC50: CDK8/C; for inhibition at 10 µM: read-out: Inhibition at 10µM (%), CDK8/C
[13] = target: CDK19/Cyclin C (Homo sapiens, UniProt Q9BWU1); assay: NanoBRET live-cell target engagement, NanoLuc-CDK19/Cyclin C in HEK-293; conditions: for IC50: CDK19/C; for inhibition at 10 µM: read-out: Inhibition at 10µM (%), CDK19/C
Sequence of CDK19/Cyclin C (Q9BWU1 whole entry): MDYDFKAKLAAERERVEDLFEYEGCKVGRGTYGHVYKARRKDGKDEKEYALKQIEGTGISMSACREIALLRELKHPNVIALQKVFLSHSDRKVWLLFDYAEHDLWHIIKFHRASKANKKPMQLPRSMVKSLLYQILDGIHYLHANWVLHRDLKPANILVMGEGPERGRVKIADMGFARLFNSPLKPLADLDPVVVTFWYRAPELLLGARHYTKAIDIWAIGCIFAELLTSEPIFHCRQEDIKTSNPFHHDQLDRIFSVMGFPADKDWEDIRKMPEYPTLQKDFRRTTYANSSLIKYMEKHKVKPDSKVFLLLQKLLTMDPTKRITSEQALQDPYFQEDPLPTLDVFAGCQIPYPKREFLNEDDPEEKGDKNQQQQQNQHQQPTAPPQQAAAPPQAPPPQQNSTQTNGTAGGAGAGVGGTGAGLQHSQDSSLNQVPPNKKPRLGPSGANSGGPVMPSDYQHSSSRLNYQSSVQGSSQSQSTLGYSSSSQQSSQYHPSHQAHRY
Sequence of CDK19/Cyclin C (P24863 whole entry partner): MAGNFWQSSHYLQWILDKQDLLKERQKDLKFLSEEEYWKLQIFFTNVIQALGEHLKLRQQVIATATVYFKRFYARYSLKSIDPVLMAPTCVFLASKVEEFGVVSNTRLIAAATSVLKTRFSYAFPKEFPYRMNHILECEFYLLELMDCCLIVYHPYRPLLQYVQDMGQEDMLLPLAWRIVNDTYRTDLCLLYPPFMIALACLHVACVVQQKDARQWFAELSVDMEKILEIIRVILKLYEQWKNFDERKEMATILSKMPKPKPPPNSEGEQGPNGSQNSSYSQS

[14] = target: CDK11B/Cyclin L2 (Homo sapiens, UniProt P21127); assay: NanoBRET live-cell target engagement, CDK11B-NanoLuc/Cyclin L2 in HEK-293; assay type: binding; conditions: read-out: Inhibition at 10µM (%), CDK11b/L2
Sequence of CDK11B/Cyclin L2 (P21127 1-782 isoform P21127-2): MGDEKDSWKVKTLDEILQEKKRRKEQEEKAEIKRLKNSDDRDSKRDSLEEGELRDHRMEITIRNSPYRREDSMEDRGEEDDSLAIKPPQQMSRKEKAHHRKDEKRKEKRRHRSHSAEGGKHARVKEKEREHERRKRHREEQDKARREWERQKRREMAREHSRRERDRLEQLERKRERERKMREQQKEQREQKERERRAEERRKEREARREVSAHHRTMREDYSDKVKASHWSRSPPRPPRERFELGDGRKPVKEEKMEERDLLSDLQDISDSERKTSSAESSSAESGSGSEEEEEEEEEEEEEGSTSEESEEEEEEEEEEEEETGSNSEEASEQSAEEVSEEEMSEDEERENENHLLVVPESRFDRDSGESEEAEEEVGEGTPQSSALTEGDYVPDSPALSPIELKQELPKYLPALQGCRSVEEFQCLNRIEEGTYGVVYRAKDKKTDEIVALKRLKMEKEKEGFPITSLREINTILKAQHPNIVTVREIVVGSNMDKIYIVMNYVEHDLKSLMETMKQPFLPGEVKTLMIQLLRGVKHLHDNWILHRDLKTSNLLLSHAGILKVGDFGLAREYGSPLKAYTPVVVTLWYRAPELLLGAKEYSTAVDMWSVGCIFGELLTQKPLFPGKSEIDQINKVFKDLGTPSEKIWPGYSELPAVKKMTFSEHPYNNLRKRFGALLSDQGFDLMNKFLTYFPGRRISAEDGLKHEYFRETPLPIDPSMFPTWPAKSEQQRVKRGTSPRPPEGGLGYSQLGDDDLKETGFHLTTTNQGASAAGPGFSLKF

[15] = target: CDK10/Cyclin L2 (Homo sapiens, UniProt Q15131); assay: NanoBRET live-cell target engagement, CDK10-NanoLuc/Cyclin L2 in HEK-293; conditions: read-out: Inhibition at 10µM (%), CDK10/L2
[16] = target: CDK3/Cyclin E1 (Homo sapiens, UniProt Q00526); assay: NanoBRET live-cell target engagement, CDK3-NanoLuc/Cyclin E1 in HEK-293; assay type: binding; conditions: CDK3/E1, read-out: Inhibition at 10µM (%)
[17] = target: T1, CDK11A/Cyclin L2 (Homo sapiens, UniProt Q9UQ88); assay: NanoBRET live-cell target engagement, CDK11A-NanoLuc/Cyclin L2 in HEK-293; assay type: binding; conditions: read-out: Inhibition at 10µM (%), CDK11a/L2
T1 sequence (Q9UQ88 1-783): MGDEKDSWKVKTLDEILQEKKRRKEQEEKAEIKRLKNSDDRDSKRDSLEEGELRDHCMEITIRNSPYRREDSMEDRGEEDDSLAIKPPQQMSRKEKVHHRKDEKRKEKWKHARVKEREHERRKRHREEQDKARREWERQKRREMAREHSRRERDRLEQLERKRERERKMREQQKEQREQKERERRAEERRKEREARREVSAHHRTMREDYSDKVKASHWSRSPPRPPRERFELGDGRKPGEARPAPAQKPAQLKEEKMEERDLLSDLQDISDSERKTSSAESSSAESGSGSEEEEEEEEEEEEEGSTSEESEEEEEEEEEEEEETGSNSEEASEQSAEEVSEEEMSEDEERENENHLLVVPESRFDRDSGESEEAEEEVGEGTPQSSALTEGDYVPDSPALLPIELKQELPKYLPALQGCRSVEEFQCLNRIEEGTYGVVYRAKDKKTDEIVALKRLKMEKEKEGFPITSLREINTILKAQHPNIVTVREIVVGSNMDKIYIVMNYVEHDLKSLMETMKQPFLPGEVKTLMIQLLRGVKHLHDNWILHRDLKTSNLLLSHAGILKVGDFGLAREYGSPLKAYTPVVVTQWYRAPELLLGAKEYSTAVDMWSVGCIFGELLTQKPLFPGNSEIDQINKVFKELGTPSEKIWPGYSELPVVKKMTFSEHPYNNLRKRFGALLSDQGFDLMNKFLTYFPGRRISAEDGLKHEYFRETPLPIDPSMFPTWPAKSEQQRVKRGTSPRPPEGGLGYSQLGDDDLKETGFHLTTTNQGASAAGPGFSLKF

[18] = target: CDK16/Cyclin Y (Homo sapiens, UniProt Q00536); assay: NanoBRET live-cell target engagement, CDK16-NanoLuc/Cyclin Y in HEK-293; assay type: binding; conditions: read-out: Inhibition at 10µM (%), CDK16/Y
[19] = target: CDK6/Cyclin D1 (Homo sapiens, UniProt Q00534); assay: NanoBRET live-cell target engagement, NanoLuc-CDK6/Cyclin D1 in HEK-293; assay type: binding; conditions: CDK6/D1, read-out: Inhibition at 10µM (%)
Sequence of CDK6/Cyclin D1 (Q00534 whole entry): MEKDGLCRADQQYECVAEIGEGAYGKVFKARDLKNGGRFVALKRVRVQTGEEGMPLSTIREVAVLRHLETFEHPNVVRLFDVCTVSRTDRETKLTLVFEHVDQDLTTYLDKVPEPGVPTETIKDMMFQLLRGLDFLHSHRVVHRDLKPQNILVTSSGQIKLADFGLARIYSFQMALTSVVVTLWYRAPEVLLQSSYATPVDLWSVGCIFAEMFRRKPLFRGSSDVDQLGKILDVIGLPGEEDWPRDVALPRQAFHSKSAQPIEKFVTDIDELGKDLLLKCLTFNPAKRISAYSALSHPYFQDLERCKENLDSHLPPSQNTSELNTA
Sequence of CDK6/Cyclin D1 (P24385 whole entry partner): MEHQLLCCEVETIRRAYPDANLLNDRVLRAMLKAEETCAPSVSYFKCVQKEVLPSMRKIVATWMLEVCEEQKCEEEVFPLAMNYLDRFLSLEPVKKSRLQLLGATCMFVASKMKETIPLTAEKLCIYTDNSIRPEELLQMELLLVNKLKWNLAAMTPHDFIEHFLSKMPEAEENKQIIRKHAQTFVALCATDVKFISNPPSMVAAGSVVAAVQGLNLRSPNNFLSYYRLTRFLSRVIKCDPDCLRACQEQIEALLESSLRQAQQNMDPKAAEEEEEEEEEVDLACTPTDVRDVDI

[20] = LOG10([CCT251545 analog]) (LOG10(µM)) 0.045757
[21] = LOG10([CCT251545 analog]) (LOG10(µM)) 0.522879
[22] = LOG10([CCT251545 analog]) (LOG10(µM)) 1
[23] = LOG10([CCT251545 analog]) (LOG10(µM)) -0.43136
[24] = LOG10([CCT251545 analog]) (LOG10(µM)) -0.90849
[25] = LOG10([CCT251545 analog]) (LOG10(µM)) -1.38561
[26] = LOG10([CCT251545 analog]) (LOG10(µM)) -1.86273
[27] = LOG10([CCT251545 analog]) (LOG10(µM)) -2.33985
[28] = LOG10([CCT251545 analog]) (LOG10(µM)) -2.81697
[29] = LOG10([CCT251545 analog]) (LOG10(µM)) -3.29409
[30] = LOG10([CCT251545 analog]) (LOG10(µM)) -3.77121
[31] = IC50 for CDK/cyclin complexes, live HEK-293, 2 h, mean ± S.E.M. (n=3) or mean (n=2)

Sequence of CDK15/Cyclin Y (Q96Q40 whole entry): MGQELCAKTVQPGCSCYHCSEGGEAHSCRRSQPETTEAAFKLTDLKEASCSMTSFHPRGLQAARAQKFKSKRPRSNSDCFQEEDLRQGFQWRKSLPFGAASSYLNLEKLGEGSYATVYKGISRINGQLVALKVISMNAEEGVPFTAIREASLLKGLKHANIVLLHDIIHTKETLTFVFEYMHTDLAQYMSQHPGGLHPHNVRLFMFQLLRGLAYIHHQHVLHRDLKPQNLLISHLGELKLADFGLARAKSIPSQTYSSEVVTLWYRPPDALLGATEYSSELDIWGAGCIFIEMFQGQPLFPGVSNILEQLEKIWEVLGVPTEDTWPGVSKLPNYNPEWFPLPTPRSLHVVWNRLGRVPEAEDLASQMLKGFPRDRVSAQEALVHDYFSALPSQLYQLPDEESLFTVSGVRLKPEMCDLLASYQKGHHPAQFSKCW
Sequence of CDK15/Cyclin Y (Q8ND76 whole entry partner): as the sequence (Q8ND76 whole entry partner) above

SMILES: COC1CN(C(=O)c2ccc3c(N)ncc(-c4ccc(-c5cnn(C)c5)cc4)c3n2)C1 [CCT251545 analog]
- inhibition at 10 µM ([1]; average): -9.7%
- inhibition at 10 µM ([1]; experiment 1): -3.1%
- inhibition at 10 µM ([1]; experiment 2): -16.3%
- inhibition at 10 µM ([2]; average): 16.7%
- inhibition at 10 µM ([2]; experiment 1): 19.7%
- inhibition at 10 µM ([2]; experiment 2): 13.7%
- inhibition at 10 µM ([3]; average): 6.6%
- inhibition at 10 µM ([3]; experiment 1): 6.4%
- inhibition at 10 µM ([3]; experiment 2): 6.7%
- inhibition at 10 µM ([4]; average): 0.4%
- inhibition at 10 µM ([4]; experiment 1): -7.3%
- inhibition at 10 µM ([4]; experiment 2): 8.1%
- inhibition at 10 µM ([5]; average): 1.9%
- inhibition at 10 µM ([5]; experiment 1): 5.9%
- inhibition at 10 µM ([5]; experiment 2): -2.2%
- inhibition at 10 µM ([6]; average): -18.6%
- inhibition at 10 µM ([6]; experiment 1): -37.1%
- inhibition at 10 µM ([6]; experiment 2): -0.0714%
- CDK2 Occupancy (%) [6, 20]: 0.4583%
- CDK2 Occupancy (%) [6, 21]: 13.0609%
- CDK2 Occupancy (%) [6, 22]: 32.3087%
- CDK2 Occupancy (%) [6, 23]: 6.187%
- CDK2 Occupancy (%) [6, 24]: 0%
- CDK2 Occupancy (%) [6, 25]: 0.6874%
- CDK2 Occupancy (%) [6, 26]: 13.5192%
- CDK2 Occupancy (%) [6, 27]: 9.853%
- CDK2 Occupancy (%) [6, 28]: 9.166%
- CDK2 Occupancy (%) [6, 29]: 4.812%
- CDK2 Occupancy (%) [6, 30]: 2.291%
- inhibition at 10 µM ([7]; average): 7.2%
- inhibition at 10 µM ([7]; experiment 1): 6.8%
- inhibition at 10 µM ([7]; experiment 2): 7.5%
- inhibition at 10 µM ([8]; experiment 1): 12.7%
- inhibition at 10 µM ([8]; experiment 2): 4.1%
- inhibition at 10 µM ([9]; average): 11.3%
- inhibition at 10 µM ([9]; experiment 1): 8.9%
- inhibition at 10 µM ([9]; experiment 2): 13.7%
- inhibition at 10 µM ([10]; average): 16.2%
- inhibition at 10 µM ([10]; experiment 1): 17.8%
- inhibition at 10 µM ([10]; experiment 2): 14.5%
- inhibition at 10 µM ([11]; average): 12.4%
- inhibition at 10 µM ([11]; experiment 1): 11.6%
- inhibition at 10 µM ([11]; experiment 2): 13.1%
- IC50 ([12]; IC50 (nM), experiment 1): 2.6 nM
- IC50 ([12]; IC50 (nM), experiment 2): 2 nM
- IC50 ([12]; IC50 (nM), experiment 3): 12 nM
- IC50 [12, 31]: 6 nM
- CDK8 Occupancy (%) [12, 20]: 92.3464%
- CDK8 Occupancy (%) [12, 21]: 91.9478%
- CDK8 Occupancy (%) [12, 22]: 84.2411%
- CDK8 Occupancy (%) [12, 23]: 91.0176%
- CDK8 Occupancy (%) [12, 24]: 91.5491%
- CDK8 Occupancy (%) [12, 25]: 90.619%
- CDK8 Occupancy (%) [12, 26]: 85.7027%
- CDK8 Occupancy (%) [12, 27]: 65.2404%
- CDK8 Occupancy (%) [12, 28]: 51.023%
- CDK8 Occupancy (%) [12, 29]: 25.2458%
- CDK8 Occupancy (%) [12, 30]: 19.9309%
- inhibition at 10 µM ([12]; average): 96%
- inhibition at 10 µM ([12]; experiment 1): 95%
- inhibition at 10 µM ([12]; experiment 2): 96.9%
- IC50 ([13]; IC50 (nM), experiment 1): 9 nM
- IC50 ([13]; IC50 (nM), experiment 2): 3 nM
- IC50 ([13]; IC50 (nM), experiment 3): 17 nM
- IC50 [13, 31]: 10 nM
- CDK19 occupancy (%) [13, 20]: 84.8277%
- CDK19 occupancy (%) [13, 21]: 83.6158%
- CDK19 occupancy (%) [13, 22]: 72.7094%
- CDK19 occupancy (%) [13, 23]: 89.9173%
- CDK19 occupancy (%) [13, 24]: 87.736%
- CDK19 occupancy (%) [13, 25]: 82.404%
- CDK19 occupancy (%) [13, 26]: 73.4365%
- CDK19 occupancy (%) [13, 27]: 46.7764%
- CDK19 occupancy (%) [13, 28]: 31.7498%
- CDK19 occupancy (%) [13, 29]: 15.7537%
- CDK19 occupancy (%) [13, 30]: 2.424%
- inhibition at 10 µM ([13]; average): 92.3%
- inhibition at 10 µM ([13]; experiment 1): 93.4%
- inhibition at 10 µM ([13]; experiment 2): 91.3%
- inhibition at 10 µM ([14]; average): 0.563%
- inhibition at 10 µM ([14]; experiment 1): 2.1%
- inhibition at 10 µM ([14]; experiment 2): -1%
- inhibition at 10 µM ([15]; average): -11.6%
- inhibition at 10 µM ([15]; experiment 1): -2.4%
- inhibition at 10 µM ([15]; experiment 2): -20.8%
- inhibition at 10 µM ([16]; average): 0.5%
- inhibition at 10 µM ([16]; experiment 1): 3.3%
- inhibition at 10 µM ([16]; experiment 2): -2.3%
- inhibition at 10 µM ([17]; average): 0.8%
- inhibition at 10 µM ([17]; experiment 1): -1%
- inhibition at 10 µM ([17]; experiment 2): 2.6%
- inhibition at 10 µM ([18]; experiment 1): 6.3%
- inhibition at 10 µM ([18]; experiment 2): 1.1%
- inhibition at 10 µM ([19]; average): 17.9%
- inhibition at 10 µM ([19]; experiment 1): 15.1%
- inhibition at 10 µM ([19]; experiment 2): 20.8%
